Reference: patent US10988445B2 (AstraZeneca AB, priority 2015, dated 2021)

System: human TH17 cells
Test: Inhibition of IL-17 release from human TH17 cells
Format: cell-based
Conditions: isolated human TH17 cells, 4 days culture, IL-17A by HTRF; for IC50: Homo sapiens, 96 h, read-out: pIC50 IL-17 release (converted)
Excerpt: Inhibition of IL-17 Release from Human TH17 Cells (IL-17 Release)
This test is designed to screen compounds for their inhibitory effect on the release of IL-17 from isolated and cultured human TH17 cells.
Peripheral blood mononuclear cells (PBMC) were isolated from heparin treated human whole blood fromhealthy donors by density gradient centrifugation. TH17 cells (CD4+CXCR3-CCR6+) were enriched using a human TH17 Cell Enrichment Kit (Stemcell Technologies) according to the manufacturer's protocol. […] On day 4 supernatants were collected and IL-17A was measured using a Human IL-17 HTRF Assay kit (Cisbio Bioassays) according to the manufacturer's protocol. […] Results

| SMILES | IC50 [nM] | also measured |
| --- | --- | --- |
| CC(C)[C@@H](O)C(=O)N1Cc2cc(S(C)(=O)=O)ccc2C1C(=O)Nc1ccc(C(O)(C(F)(F)F)C(F)(F)F)cc1 (single isomer, unassigned) [Example 422] | 39.8 |  |
| CC[C@@H](O)C(=O)N1Cc2cc(S(=O)(=O)NC)ccc2C1C(=O)Nc1ccc(C(O)(C(F)(F)F)C(F)(F)F)cc1 (single isomer, unassigned) [Example 303, isomer 1] |  | pIC50 IL-17 release (listed as 303, isomer 1): 6.7 |
| CS(=O)(=O)c1ccc2c(c1)CN(C(=O)C1(C#N)CC1)C2C(=O)Nc1ccc(C(O)(C(F)(F)F)C(F)(F)F)cc1F (stereo not shown) [Example 436, 2-[(1-Cyanocyclopropyl)carbonyl]-N-[2-fluoro-4-(1,1,1,3,3,3-hexafluoro-2-hydroxypropan-2-yl)phenyl]-5-(methylsulfonyl)-2,3-dihydro-1H-isoindole-1-carboxamide] | 15.8 |  |
| CC(=O)N1Cc2cc(S(=O)(=O)CC(C)C)ccc2C1C(=O)Nc1ccc(C(O)(C(F)(F)F)C(F)(F)F)cc1 (stereo not shown) [Example 1001, 2-Acetyl-N-[4-(1,1,1,3,3,3-hexafluoro-2-hydroxypropan-2-yl)phenyl]-5-[(2-methylpropyl)sulfonyl]-2,3-dihydro-1H-isoindole-1-carboxamide] | 100 |  |
| C[C@@H](F)CC(=O)N1Cc2cc(S(C)(=O)=O)ccc2C1C(=O)Nc1ccc(C(O)(C(F)(F)F)C(F)(F)F)cc1 (stereo partly drawn) [Example 418, 2-[(3R)-3-Fluorobutanoyl]-N-[4-(1,1,1,3,3,3-hexafluoro-2-hydroxypropan-2-yl)phenyl]-5-(methylsulfonyl)-2,3-dihydro-1H-isoindole-1-carboxamide] | 39.8 |  |
| CC(C)[C@H](O)C(=O)N1Cc2cc(S(C)(=O)=O)ccc2C1C(=O)Nc1ccc(C(O)(C(F)(F)F)C(F)(F)F)cc1 (single isomer, unassigned) [Example 423] | 79.4 |  |
| CCS(=O)(=O)c1ccc2c(c1)CN(C(=O)C1(CO)CC1)C2C(=O)Nc1ccc(C(O)(C(F)(F)F)C(F)(F)F)cc1 (stereo not shown) [Example 117, 5-(Ethylsulfonyl)-N-[4-(1,1,1,3,3,3-hexafluoro-2-hydroxypropan-2-yl)phenyl]-2-{[1-(hydroxymethyl)cyclopropyl]carbonyl}-2,3-dihydro-1H-isoindole-1-carboxamide] | 79.4 |  |
| CC[C@H](O)C(=O)N1Cc2cc(S(=O)(=O)NC)ccc2C1C(=O)Nc1ccc(C(O)(C(F)(F)F)C(F)(F)F)cc1 (single isomer, unassigned) [Example 307, isomer 2, (R) or (S)N-[4-(1,1,1,3,3,3-Hexafluoro-2-hydroxypropan-2-yl)phenyl]-2-[(2S)-2-hydroxybutanoyl]-5-(methylsulfamoyl)-2,3-dihydro-1H-isoindole-1-carboxamide] |  | pIC50 IL-17 release (listed as 307, isomer 2): 6.5 |
| CC(=O)N1Cc2cc(S(=O)(=O)CC(C)O)ccc2C1C(=O)Nc1ccc(C(O)(C(F)(F)F)C(F)(F)F)cc1 (stereo not shown) [Example 1200, 2-Acetyl-N-[4-(1,1,1,3,3,3-hexafluoro-2-hydroxypropan-2-yl)phenyl]-5-[(2-hydroxypropyl)sulfonyl]-2,3-dihydro-1H-isoindole-1-carboxamide] | 158 |  |
| CCOC(=O)N1Cc2cc(S(=O)(=O)NC)ccc2C1C(=O)Nc1ccc(C(O)(C(F)(F)F)C(F)(F)F)cc1 (stereo not shown) [Example 305, Ethyl 1-{[4-(1,1,1,3,3,3-hexafluoro-2-hydroxypropan-2-yl)phenyl]carbamoyl}-5-(methylsulfamoyl)-1,3-dihydro-2H-isoindole-2-carboxylate] | 10 |  |
| CC1(C(=O)N2Cc3cc(S(C)(=O)=O)ccc3[C@@H]2C(=O)Nc2ccc(C(O)(C(F)(F)F)C(F)(F)F)cc2)CCO1 (single isomer, unassigned) [Example 452, isomer 2] |  | pIC50 IL-17 release (listed as 452, isomer 2): 7.3 |
| CNC(=O)N1Cc2cc(S(=O)(=O)CCOC)ccc2C1C(=O)Nc1ccc(C(O)(C(F)(F)F)C(F)(F)F)cc1 (stereo not shown) [Example 707] | 50.1 |  |
| CS(=O)(=O)c1ccc2c(c1)CN(C(=O)CC1CC1)C2C(=O)Nc1ccc(C(O)(C(F)(F)F)C(F)(F)F)cc1 (stereo not shown) [Example 411, 2-(Cyclopropylacetyl)-N-[4-(1,1,1,3,3,3-hexafluoro-2-hydroxypropan-2-yl)phenyl]-5-(methylsulfonyl)-2,3-dihydro-1H-isoindole-1-carboxamide] | 25.1 |  |
| CC1(C(=O)N2Cc3cc(S(C)(=O)=O)ccc3[C@@H]2C(=O)Nc2ccc(C(O)(C(F)(F)F)C(F)(F)F)cc2)CCO1 (single isomer, unassigned) [Example 452, isomer 1] |  | pIC50 IL-17 release (listed as 452, isomer 1): 7.7 |
| CC(=O)N1Cc2cc(S(C)(=O)=O)ccc2C1C(=O)Nc1ccc(C(O)(C(F)(F)F)C(F)(F)F)c(F)c1 (stereo not shown) [Example 435, 2-Acetyl-N-[3-fluoro-4-(1,1,1,3,3,3-hexafluoro-2-hydroxypropan-2-yl)phenyl]-5-(methylsulfonyl)-2,3-dihydro-1H-isoindole-1-carboxamide] | 20 |  |
| CC(C)OC(=O)N1Cc2cc(S(C)(=O)=O)ccc2C1C(=O)Nc1ccc(C(O)(C(F)(F)F)C(F)(F)F)cc1 (stereo not shown) [Example 420, Propan-2-yl 1-{[4-(1,1,1,3,3,3-hexafluoro-2-hydroxypropan-2-yl)phenyl]carbamoyl}-5-(methylsulfonyl)-1,3-dihydro-2H-isoindole-2-carboxylate] | 79.4 |  |
| CNS(=O)(=O)c1ccc2c(c1)CN(C(=O)[C@H]1CCCO1)C2C(=O)Nc1ccc(C(O)(C(F)(F)F)C(F)(F)F)cc1 (stereo partly drawn) [Example 310, N-[4-(1,1,1,3,3,3-Hexafluoro-2-hydroxypropan-2-yl)phenyl]-5-(methylsulfamoyl)-2-[(2R)-tetrahydrofuran-2-ylcarbonyl]-2,3-dihydro-1H-isoindole-1-carboxamide] | 31.6 |  |
| COC1(CC(=O)N2Cc3cc(S(C)(=O)=O)ccc3C2C(=O)Nc2ccc(C(O)(C(F)(F)F)C(F)(F)F)cc2)CC1 (stereo not shown) [Example 417, N-[4-(1,1,1,3,3,3-Hexafluoro-2-hydroxypropan-2-yl)phenyl]-2-[(1-methoxycyclopropyl)acetyl]-5-(methylsulfonyl)-2,3-dihydro-1H-isoindole-1-carboxamide] | 31.6 |  |
| CCC(OC)C(=O)N1Cc2cc(S(=O)(=O)NC)ccc2C1C(=O)Nc1ccc(C(O)(C(F)(F)F)C(F)(F)F)cc1 (stereo not shown) [Example 312, N-[4-(1,1,1,3,3,3-Hexafluoro-2-hydroxypropan-2-yl)phenyl]-2-(2-methoxybutanoyl)-5-(methylsulfamoyl)-2,3-dihydro-1H-isoindole-1-carboxamide] | 39.8 |  |
| O=CN1Cc2cc(S(=O)(=O)CC3(O)CC3)ccc2C1C(=O)Nc1ccc(C(O)(C(F)(F)F)C(F)(F)F)cc1 (stereo not shown) [Example 1102, 2-Formyl-N-[4-(1,1,1,3,3,3-hexafluoro-2-hydroxypropan-2-yl)phenyl]-5-{[(1-hydroxycyclopropyl)methyl]sulfonyl}-2,3-dihydro-1H-isoindole-1-carboxamide] | 31.6 |  |
| CC1(C(=O)N2Cc3cc(S(C)(=O)=O)ccc3C2C(=O)Nc2ccc(C(O)(C(F)(F)F)C(F)(F)F)cc2)COC1 (stereo not shown) [Example 443] | 100 |  |
| COC(=O)N1Cc2cc(S(=O)(=O)CC3CC3)ccc2C1C(=O)Nc1ccc(C(O)(C(F)(F)F)C(F)(F)F)cc1 (stereo not shown) [Example 213, Methyl 5-[(cyclopropylmethyl)sulfonyl]-1-{[4-(1,1,1,3,3,3-hexafluoro-2-hydroxypropan-2-yl)phenyl]carbamoyl}-1,3-dihydro-2H-isoindole-2-carboxylate] | 7.94 |  |
| CS(=O)(=O)c1ccc2c(c1)CN(C(=O)C1(F)CC1)C2C(=O)Nc1ccc(C(O)(C(F)(F)F)C(F)(F)F)cc1 (stereo not shown) [Example 446, 2-[(1-Fluorocyclopropyl)carbonyl]-N-[4-(1,1,1,3,3,3-hexafluoro-2-hydroxypropan-2-yl)phenyl]-5-(methylsulfonyl)-2,3-dihydro-1H-isoindole-1-carboxamide] | 31.6 |  |
| O=C(Nc1ccc(C(O)(C(F)(F)F)C(F)(F)F)cc1)C1NCc2cc(S(=O)(=O)CC3(F)CC3)ccc21 (stereo not shown) [Example 1300, 5-{[(1-Fluorocyclopropyl)methyl]sulfonyl}-N-[4-(1,1,1,3,3,3-hexafluoro-2-hydroxypropan-2-yl)phenyl]-2,3-dihydro-1H-isoindole-1-carboxamide] | 251 |  |
| COC(C)(C)C(=O)N1Cc2cc(S(C)(=O)=O)ccc2C1C(=O)Nc1ccc(C(O)(C(F)(F)F)C(F)(F)F)cc1 (stereo not shown) [Example 419, N-[4-(1,1,1,3,3,3-Hexafluoro-2-hydroxypropan-2-yl)phenyl]-2-(2-methoxy-2-methylpropanoyl)-5-(methylsulfonyl)-2,3-dihydro-1H-isoindole-1-carboxamide] | 50.1 |  |
| CCS(=O)(=O)c1ccc2c(c1)CN(C(=O)CC1(OC)CC1)C2C(=O)Nc1ccc(C(O)(C(F)(F)F)C(F)(F)F)cc1 (stereo not shown) [Example 112, 5-(Ethylsulfonyl)-N-[4-(1,1,1,3,3,3-hexafluoro-2-hydroxypropan-2-yl)phenyl]-2-[(1-methoxycyclopropyl)acetyl]-2,3-dihydro-1H-isoindole-1-carboxamide] | 31.6 |  |
| CC(C)CC(=O)N1Cc2cc(S(C)(=O)=O)ccc2C1C(=O)Nc1ccc(C(O)(C(F)(F)F)C(F)(F)F)cc1 (stereo not shown) [Example 410, N-[4-(1,1,1,3,3,3-Hexafluoro-2-hydroxypropan-2-yl)phenyl]-2-(3-methylbutanoyl)-5-(methylsulfonyl)-2,3-dihydro-1H-isoindole-1-carboxamide] | 20 |  |
| C[C@H](O)CC(=O)N1Cc2cc(S(C)(=O)=O)ccc2C1C(=O)Nc1ccc(C(O)(C(F)(F)F)C(F)(F)F)cc1 (stereo partly drawn) [Example 433, N-[4-(1,1,1,3,3,3-Hexafluoro-2-hydroxypropan-2-yl)phenyl]-2-[(3S)-3-hydroxybutanoyl]-5-(methylsulfonyl)-2,3-dihydro-1H-isoindole-1-carboxamide] | 79.4 |  |
